The results in this text go back to publication PMC8131206 (Nature biomedical engineering, 2021).

Experiment [1] relates to M. tuberculosis H37Ra (attenuated). Conditions: 96 h.
The subject of a further experiment is M. smegmatis Mc^2 155. Conditions: Mc^2 155, 48 h.
For the next experiment, the system named is S. aureus (MR) USA300. Conditions: USA300, 24 h.
The test system of another experiment is S. aureus (MS) NRS72. The conditions noted are these: MS) NRS72, 24 h.
The subject of the next experiment is S. aureus (MS) Newman. The conditions noted are these: 24 h.
A further experiment relates to S. mitis NCTC 12261. Conditions: NCTC 12261, 24 h.
For the next experiment, the system named is E. faecalis ATCC 29212. Conditions: ATCC 29212, 24 h.
Another experiment deals with K. pneumoniae NCTC 9633. Conditions: NCTC 9633, 24 h.
The next experiment has as its system E. coli DH5α. Conditions: 24 h.
The next experiment has as its system S. enterica CDC 6516–60. The conditions noted are these: CDC 6516–60, 24 h.
The next experiment has as its system P. aeruginosa PAO1. The conditions noted are these: PAO1, 24 h.
The next experiment has as its system A. baumannii 2208. The conditions noted are these: 2208, 24 h.
A further experiment relates to H. influenzae TD-4. The conditions noted are these: TD-4, 24 h.

Where no end group is shown, it is not given here.

In the case of KRWWKWWRR-NH2 [AMP2], the MIC in experiment [1] is listed as 10 µM; with M. smegmatis Mc^2 155, 20 µM; against S. aureus (MR) USA300 it was 80 µM; with S. aureus (MS) NRS72 it was 80 µM; against S. aureus (MS) Newman it was 40 µM; with S. mitis NCTC 12261 it was above 80 µM. The MIC is reported as above 80 µM with E. faecalis ATCC 29212; 20 µM in the experiment with K. pneumoniae NCTC 9633; 80 µM against E. coli DH5α; 80 µM in the experiment with S. enterica CDC 6516–60; 20 µM against P. aeruginosa PAO1; 80 µM against A. baumannii 2208. This substance also yielded an MIC against H. influenzae TD-4 of 80 µM.
In the case of RRWWRWVVW-NH2 [AMP3], the MIC in experiment [1] was found to be 20 µM; in the experiment with M. smegmatis Mc^2 155, 20 µM; in the experiment with S. aureus (MR) USA300, 20 µM; in the experiment on S. aureus (MS) NRS72 it was 20 µM; against S. aureus (MS) Newman, 20 µM; against E. faecalis ATCC 29212, 80 µM. The MIC against K. pneumoniae NCTC 9633 is reported as 2.5 µM; with E. coli DH5α it was above 80 µM; in the experiment with S. enterica CDC 6516–60, 80 µM; against P. aeruginosa PAO1, 80 µM; against A. baumannii 2208 it was 10 µM.
In the case of WKWLKKWIK-NH2 [AMP1], the MIC in [1] is reported as 20 µM; against M. smegmatis Mc^2 155, 20 µM; against S. aureus (MR) USA300, above 80 µM; in the experiment on S. aureus (MS) NRS72 it was above 80 µM; in the experiment on S. aureus (MS) Newman it was 80 µM; with S. mitis NCTC 12261, 20 µM. Besides, the MIC in the experiment with E. faecalis ATCC 29212 is listed as 80 µM; against K. pneumoniae NCTC 9633, 20 µM; in the experiment on E. coli DH5α it was above 80 µM; in the experiment on S. enterica CDC 6516–60 it was 40 µM; against P. aeruginosa PAO1, 10 µM; against A. baumannii 2208 it was 25 µM. This substance also registered an MIC with H. influenzae TD-4 of 80 µM.
